± gives the standard deviation of the averaged measurements.
Experiments:
Assay in all cases: level (log10 ratio to DMSO vehicle control); higher = higher biomarker level / cell amount than vehicle control
Conditions in all cases: in DMSO
[1] = compound: O=C(O)CCC(F)(F)C(F)(F)C(F)(F)C(F)(F)C(F)(F)F [2H,2H,3H,3H-Perfluorooctanoic acid]
Description: (§1)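 BioMAP Diversity Plus panel of 12 human primary cell co-culture systems (3C, 4H, LPS, SAg, BT, BF4T, BE3C, CASM3C, HDF3CGF, KF3CT, MyoF, Mphg). Compounds were added 1 h before stimulation and left for 24 h (MyoF 48 h; BT 72 h for soluble read-outs or 6 d for IgG). Biomarkers were read by ELISA, cytotoxicity by SRB, PBMC viability and proliferation by Alamar Blue. Each well value was divided by the mean of 8 DMSO control wells on the same plate and log10 transformed; duplicate blinded samples were tested at 4 concentrations.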

[2] = compound: O=S(=O)(O)C(F)(F)C(F)(F)C(F)(F)C(F)(F)C(F)(F)C(F)(F)C(F)(F)C(F)(F)F [Perfluorooctanesulfonic acid]
Description: as §1

[3] = compound: O=S(=O)(O)C(F)(F)C(F)(F)C(F)(F)C(F)(F)C(F)(F)C(F)(F)C(F)(F)C(F)(F)F [Potassium perfluorooctanesulfonate]
Description: as §1

Test System	level (log10) ([1]; 6700 nM)	level (log10) ([1]; 20000 nM)	level (log10) ([1]; 60000 nM)	level (log10) ([2]; 6700 nM)	level (log10) ([2]; 20000 nM)	level (log10) ([2]; 60000 nM)	level (log10) ([3]; 6700 nM)	level (log10) ([3]; 20000 nM)	level (log10) ([3]; 60000 nM)
MyoF:PAI-I	-0.009 ± 0.0028	-0.0155 ± 0.005	-0.0025 ± 0.005	0.003 ± 0.017	-0.0105 ± 0.0064	-0.0055 ± 0.0092	0.003 ± 0.025	-0.006 ± 0.0014	-0.0065 ± 0.0064
MyoF:SRB	-0.002 ± 0.0057	-0.0035 ± 0.0064	-0.0065 ± 0.015	-0.0045 ± 0.00071	-0.0155 ± 0.00071	-0.0185 ± 0.019	-0.001 ± 0.011	-0.0085 ± 0.0035	-0.0145 ± 0.016
MyoF:TIMP-1	-0.035 ± 0.088	-0.0365 ± 0.087	-0.0155 ± 0.071	-0.002 ± 0.03	0.003 ± 0.0071	0.102 ± 0.0021	0.069 ± 0.02	0.0605 ± 0.03	0.111 ± 0.0021
MyoF:alpha-SM Actin	0.048 ± 0.024	0.017 ± 0.013	0.0205 ± 0.061	-0.0015 ± 0.023	0.004 ± 0.035	0.0105 ± 0.005	-0.0215 ± 0.079	-0.027 ± 0.075	-0.0175 ± 0.066
MyoF:bFGF	-0.013 ± 0.017	-0.011 ± 0.0085	-0.008 ± 0.021	-0.004	-0.0185 ± 0.028	-0.0125 ± 0.018	-0.0105 ± 0.025	-0.0195 ± 0.023	-0.019 ± 0.028
lMphg:CCL2/MCP-1	0.007 ± 0.016	-0.0115 ± 0.005	-0.01	-0.0055 ± 0.0092	0.0015 ± 0.0064	-0.0075 ± 0.04	-0.0275 ± 0.018	-0.013 ± 0.047	-0.0155 ± 0.026
lMphg:CCL3/MIP-1alpha	0.032 ± 0.052	0.0625 ± 0.081	0.0765 ± 0.053	-0.0225 ± 0.011	-0.007	-0.0035 ± 0.0078	-0.0105 ± 0.0035	-0.0255 ± 0.0092	-0.016 ± 0.02
lMphg:CD40	-0.0205 ± 0.039	-0.0235 ± 0.04	-0.05 ± 0.041	-0.027 ± 0.013	-0.0025 ± 0.005	0.02 ± 0.0014	-0.0245 ± 0.0035	-0.0125 ± 0.0092	0.002 ± 0.017
lMphg:CD62E/E-Selectin	0.0015 ± 0.035	0.0165 ± 0.0064	0.0415 ± 0.00071	-0.0015 ± 0.023	0.0385 ± 0.013	0.186 ± 0.029	0.0145 ± 0.0092	0.052 ± 0.023	0.204
lMphg:CD69	-0.032 ± 0.05	-0.0325 ± 0.063	-0.016 ± 0.031	-0.046	-0.0585 ± 0.029	-0.102 ± 0.091	-0.04 ± 0.0028	-0.052 ± 0.02	-0.074 ± 0.04
lMphg:CD106/VCAM-1	-0.0135 ± 0.0092	-0.022 ± 0.023	-0.011 ± 0.021	-0.009 ± 0.0099	-0.005 ± 0.013	-0.058 ± 0.04	-0.012 ± 0.018	0.0015 ± 0.005	-0.038 ± 0.017
lMphg:CXCL8/IL-8	-0.017 ± 0.023	0.066 ± 0.04	0.115 ± 0.018	-0.0385 ± 0.018	-0.003 ± 0.025	0.0585 ± 0.1	-0.0435 ± 0.005	0.0135 ± 0.03	0.094 ± 0.0028
lMphg:IL-1alpha	0.03 ± 0.028	0.0675 ± 0.071	0.129 ± 0.067	0.0015 ± 0.022	0.0075 ± 0.013	0.017 ± 0.0085	-0.003 ± 0.028	0.0235 ± 0.015	0.0125 ± 0.012
lMphg:M-CSF	-0.0155 ± 0.0021	0.0035 ± 0.0064	-0.046 ± 0.014	-0.003 ± 0.013	-0.008 ± 0.0085	0.03 ± 0.0042	-0.0005 ± 0.005	-0.004 ± 0.0057	0.035 ± 0.016
lMphg:SRB	-0.0025 ± 0.0035	0.001 ± 0.0014	0.007 ± 0.0085	-0.002 ± 0.014	-0.004 ± 0.018	0.009 ± 0.02	-0.0065 ± 0.015	-0.01 ± 0.0071	-0.015 ± 0.011
lMphg:SRB-Mphg	0.0115 ± 0.0035	0.0065 ± 0.015	0.007 ± 0.017	-0.0005 ± 0.021	0.007 ± 0.0071	0.0055 ± 0.0035	0.0005 ± 0.005	0.0005 ± 0.011	0.0115 ± 0.005
lMphg:sIL-10	-0.073 ± 0.0085	-0.043	-0.216 ± 0.011	-0.033 ± 0.076	-0.0295 ± 0.012	-0.727 ± 0.099	0.015 ± 0.0014	-0.0445 ± 0.0092	-0.647 ± 0.025

Source: the supplement of paper PMC10331698
